Test results from ChEMBL document CHEMBL1201862, “PubChem BioAssay data set” (2004).
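Five compound concentrations were applied to cells in 96-well plates for 48 hours; endpoints were derived by simple linear interpolation of the resulting dose-response curve. Abbreviation: GI50, concentration required for 50% inhibition of growth.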 Active and inactive are the calls of the source. No stated cut-off is given here; in the data, active = GI50 up to about 1.1 µM and inactive = higher.

How the values were obtained:
Test in all cases: inhibition of tumour cell growth, NCI panel, 48 h
NCI-H460 = system: NCI-H460
COLO 205 = system: COLO 205
IGROV-1 = system: IGROV-1
HL-60 = system: HL-60
SK-MEL-28 = system: SK-MEL-28
MCF7 = system: MCF7
Malme-3M = system: Malme-3M
NCI/ADR-RES = system: NCI/ADR-RES
HCT-116 = system: HCT-116
TK-10 = system: TK-10
RXF 393 = system: RXF 393
786-0 = system: 786-0
UO-31 = system: UO-31
SNB-75 = system: SNB-75
EKVX = system: EKVX
HCC 2998 = system: HCC 2998
NCI-H226 = system: NCI-H226
OVCAR-5 = system: OVCAR-5
UACC-257 = system: UACC-257
BT-549 = system: BT-549

Compound | GI50 (NCI-H460) | GI50 (COLO 205) | GI50 (IGROV-1) | GI50 (HL-60) | GI50 (SK-MEL-28) | GI50 (MCF7) | GI50 (Malme-3M) | GI50 (NCI/ADR-RES) | GI50 (HCT-116) | GI50 (TK-10) | GI50 (RXF 393) | GI50 (786-0) | GI50 (UO-31) | GI50 (SNB-75) | GI50 (EKVX) | GI50 (HCC 2998) | GI50 (NCI-H226) | GI50 (OVCAR-5) | GI50 (UACC-257) | GI50 (BT-549)
C/C(CC1SCCCS1)=C(/C)CC1SCCCS1 | > 100 µM (inactive) | > 100 µM (inactive) | > 100 µM (inactive) | > 100 µM (inactive) | > 100 µM (inactive) | > 100 µM (inactive) | > 100 µM (inactive) | > 100 µM (inactive) | > 100 µM (inactive) | > 100 µM (inactive) | > 100 µM (inactive) | > 100 µM (inactive) | > 100 µM (inactive) | > 100 µM (inactive) | > 100 µM (inactive) | > 100 µM (inactive) | > 100 µM (inactive) | > 100 µM (inactive) |  | 
Cc1ccc(NC(=O)C(=O)C(C#N)c2ccccc2C)cc1C (stereo not drawn) | > 48.5 µM (inactive) | > 45.5 µM (inactive) | > 100 µM (inactive) | > 54.1 µM (inactive) | > 100 µM (inactive) |  | > 100 µM (inactive) |  | > 44.5 µM (inactive) | > 100 µM (inactive) | > 100 µM (inactive) | > 68.2 µM (inactive) | > 100 µM (inactive) | > 69.3 µM (inactive) | > 100 µM (inactive) | > 54.3 µM (inactive) | > 100 µM (inactive) | > 100 µM (inactive) | > 100 µM (inactive) | 
O/N=C1/C(=C/c2ccc(Oc3ccccc3)cc2)CCCC1C(NO)c1ccc(Oc2ccccc2)cc1 (stereo not drawn) | 27.9 µM (inactive) | 19.3 µM (inactive) | 29.1 µM (inactive) | 8.51 µM (inactive) | 61.2 µM (inactive) |  | 44.1 µM (inactive) |  | 11.5 µM (inactive) | 10.3 µM (inactive) | 14.5 µM (inactive) | 28.6 µM (inactive) | 21 µM (inactive) | 69.8 µM (inactive) | 81.3 µM (inactive) | 32.5 µM (inactive) | 25.1 µM (inactive) | 63 µM (inactive) | 50.1 µM (inactive) | 
O=C(O)c1nn[nH]c1S | > 100 µM (inactive) | > 100 µM (inactive) | > 100 µM (inactive) | > 100 µM (inactive) | > 100 µM (inactive) | > 100 µM (inactive) | > 100 µM (inactive) | > 100 µM (inactive) | > 100 µM (inactive) |  | > 100 µM (inactive) | > 100 µM (inactive) | > 100 µM (inactive) | > 100 µM (inactive) | > 100 µM (inactive) | > 100 µM (inactive) | > 100 µM (inactive) | > 100 µM (inactive) | > 100 µM (inactive) | 
CCS/C(=N\c1ccccc1)SC | > 100 µM (inactive) | > 100 µM (inactive) | > 100 µM (inactive) | > 100 µM (inactive) | > 100 µM (inactive) |  | > 100 µM (inactive) |  | > 100 µM (inactive) | > 100 µM (inactive) | > 100 µM (inactive) | > 100 µM (inactive) | > 100 µM (inactive) | 51.8 µM (inactive) | > 100 µM (inactive) | > 100 µM (inactive) | > 100 µM (inactive) | > 100 µM (inactive) | > 100 µM (inactive) | 
Nc1nc(Cl)cc(OCC2(CO)CC=CC2)n1 | > 100 µM (inactive) |  | > 100 µM (inactive) | > 100 µM (inactive) | > 100 µM (inactive) | > 100 µM (inactive) | > 100 µM (inactive) | > 100 µM (inactive) | > 100 µM (inactive) | > 100 µM (inactive) | > 100 µM (inactive) | > 100 µM (inactive) |  | 27.1 µM (inactive) | > 100 µM (inactive) | > 100 µM (inactive) | > 100 µM (inactive) | > 100 µM (inactive) | > 100 µM (inactive) | 
COc1ccc(CC#C/C=C/C(=O)NCC(C)C)cc1 | > 100 µM (inactive) | > 100 µM (inactive) | > 100 µM (inactive) | 29.5 µM (inactive) | > 100 µM (inactive) |  | > 100 µM (inactive) |  | > 100 µM (inactive) | > 100 µM (inactive) | 40.3 µM (inactive) | > 100 µM (inactive) | > 100 µM (inactive) | 55 µM (inactive) | > 100 µM (inactive) | > 100 µM (inactive) | > 100 µM (inactive) | > 100 µM (inactive) | > 100 µM (inactive) | 
COC1=CC(C2c3cc4c(cc3[C@@H](Nc3ccc([N+](=O)[O-])cc3)C3COC(=O)[C@H]23)OCO4)=CC(=O)C1=O (stereo partly drawn) | 0.277 µM (active) | 21.4 µM (inactive) | 13 µM (inactive) | 0.982 µM (active) | 14.8 µM (inactive) |  | 4.46 µM (inactive) |  | 6.64 µM (inactive) | 8.41 µM (inactive) | 17.9 µM (inactive) | 1.83 µM (inactive) | 6.24 µM (inactive) | 1.54 µM (inactive) | 7.57 µM (inactive) | 2.63 µM (inactive) | 1.64 µM (inactive) | 5.53 µM (inactive) | 16.1 µM (inactive) | 
CCOC(=O)C1C=C1C(C)(C)O (stereo not drawn) | > 10 µM (inactive) |  | > 10 µM (inactive) | > 10 µM (inactive) | > 10 µM (inactive) | > 10 µM (inactive) | > 10 µM (inactive) |  |  | > 10 µM (inactive) | > 10 µM (inactive) | > 10 µM (inactive) | > 10 µM (inactive) | > 10 µM (inactive) | > 10 µM (inactive) |  | > 10 µM (inactive) | > 10 µM (inactive) | > 10 µM (inactive) | > 10 µM (inactive)
Cc1[nH]c(=O)[nH]c(=S)c1C(=O)NC(C)(CO)CO | > 100 µM (inactive) | > 100 µM (inactive) | > 100 µM (inactive) | > 100 µM (inactive) | > 100 µM (inactive) | > 100 µM (inactive) | > 100 µM (inactive) | > 100 µM (inactive) | > 100 µM (inactive) | > 100 µM (inactive) | > 100 µM (inactive) | > 100 µM (inactive) | > 100 µM (inactive) | > 100 µM (inactive) | > 100 µM (inactive) | > 100 µM (inactive) | > 100 µM (inactive) | > 100 µM (inactive) | > 100 µM (inactive) | 
COc1cc(C2c3cc4c(cc3[C@@H](Nc3ccc(F)cc3)C3CO[C@@H](O)[C@H]23)OCO4)cc(OC)c1O (stereo partly drawn) | 0.169 µM (active) | 5.78 µM (inactive) | 7.62 µM (inactive) | 0.598 µM (active) | 7.85 µM (inactive) | 1.9 µM (inactive) |  | 7.36 µM (inactive) | 3.72 µM (inactive) | 12.3 µM (inactive) |  | 4.61 µM (inactive) | 1.24 µM (inactive) | 4.83 µM (inactive) | 14.4 µM (inactive) | 11 µM (inactive) |  | 1.46 µM (inactive) | 20.7 µM (inactive) | 
c1ccc(P2c3ccccc3Nc3ccccc32)cc1 | 62.1 µM (inactive) | 32.7 µM (inactive) | 71 µM (inactive) | 29.1 µM (inactive) | > 100 µM (inactive) | 72.1 µM (inactive) | 49.3 µM (inactive) | > 100 µM (inactive) | 38.6 µM (inactive) | > 100 µM (inactive) | 29.5 µM (inactive) | > 100 µM (inactive) | > 100 µM (inactive) | 11.4 µM (inactive) | 34 µM (inactive) | > 100 µM (inactive) | 99.5 µM (inactive) | > 100 µM (inactive) | 43.1 µM (inactive) | 
